Measured values reported in the supplement of paper PMC10307832.

What was measured:
Experiment in all cases: relative viability (nuclei count vs DMSO), 5 days (fraction); higher = more cells survive
Dabrafenib + OSI-027 = compound: CC(C)(C)c1nc(-c2cccc(NS(=O)(=O)c3c(F)cccc3F)c2F)c(-c2ccnc(N)n2)s1 [Dabrafenib] + COc1cccc2cc(-c3nc([C@H]4CC[C@H](C(=O)O)CC4)n4ncnc(N)c34)[nH]c12 [OSI-027] (partner 0.5 µM)
In short: (§1)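 Lung cancer cell lines were pin-tool dosed in 1536-well plates on the day after seeding, with either a lone drug or a fixed anchor-drug dose plus five library-drug doses (not always all listed) in √10 steps. Nuclei were counted on 4× images after 5 days. Relative viability is the ratio of treated-well to vehicle-well nuclei counts, with each value a median of duplicate plates.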

VX-702 + Alpelisib = compound: NC(=O)c1ccc(N(C(N)=O)c2c(F)cccc2F)nc1-c1ccc(F)cc1F [VX-702] + Cc1nc(NC(=O)N2CCC[C@H]2C(N)=O)sc1-c1ccnc(C(C)(C)C(F)(F)F)c1 [Alpelisib] (partner 2 µM)
In short: as §1

Dabrafenib + Tozasertib = compound: CC(C)(C)c1nc(-c2cccc(NS(=O)(=O)c3c(F)cccc3F)c2F)c(-c2ccnc(N)n2)s1 [Dabrafenib] + Cc1cc(Nc2cc(N3CCN(C)CC3)nc(Sc3ccc(NC(=O)C4CC4)cc3)n2)n[nH]1 [Tozasertib] (partner 0.1 µM)
In short: as §1

Dabrafenib + AZD7762 = compound: CC(C)(C)c1nc(-c2cccc(NS(=O)(=O)c3c(F)cccc3F)c2F)c(-c2ccnc(N)n2)s1 [Dabrafenib] + NC(=O)Nc1cc(-c2cccc(F)c2)sc1C(=O)N[C@H]1CCCNC1 [AZD7762] (partner 0.2 µM)
In short: as §1

Cell Line | relative viability (Dabrafenib + OSI-027; first compound 0.003 µM) | relative viability (Dabrafenib + OSI-027; first compound 0.009487 µM) | relative viability (Dabrafenib + OSI-027; first compound 0.03 µM) | relative viability (Dabrafenib + OSI-027; first compound 0.09487 µM) | relative viability (Dabrafenib + OSI-027; first compound 0.3 µM) | relative viability (VX-702 + Alpelisib; first compound 0.02 µM) | relative viability (VX-702 + Alpelisib; first compound 0.2 µM) | relative viability (VX-702 + Alpelisib; first compound 0.6325 µM) | relative viability (VX-702 + Alpelisib; first compound 2 µM) | relative viability (Dabrafenib + Tozasertib; first compound 0.003 µM) | relative viability (Dabrafenib + Tozasertib; first compound 0.009487 µM) | relative viability (Dabrafenib + Tozasertib; first compound 0.03 µM) | relative viability (Dabrafenib + Tozasertib; first compound 0.09487 µM) | relative viability (Dabrafenib + Tozasertib; first compound 0.3 µM) | relative viability (Dabrafenib + AZD7762; first compound 0.003 µM) | relative viability (Dabrafenib + AZD7762; first compound 0.009487 µM) | relative viability (Dabrafenib + AZD7762; first compound 0.03 µM) | relative viability (Dabrafenib + AZD7762; first compound 0.09487 µM) | relative viability (Dabrafenib + AZD7762; first compound 0.3 µM)
201T | 0.306 | 0.786 | 0.642 | 0.656 | 0.808 | 0.997 | 1.04 | 1.03 | 1.02 | 1.02 | 0.915 | 0.918 | 0.912 | 1.04 | 0.28 | 0.711 | 0.59 | 0.461 | 0.475
A549 | – | – | – | – | – | 0.727 | 0.666 | 0.692 | 0.857 | – | – | – | – | – | – | – | – | – | –
A-427 | – | 0.351 | 0.518 | 0.379 | 0.474 | 0.997 | 0.99 | 1.1 | 1.17 | – | 0.202 | 0.187 | 0.196 | 0.209 | 0.355 | 0.808 | 0.636 | 0.646 | 0.744
ABC-1 | 0.442 | 0.42 | 0.496 | 0.537 | 0.507 | 0.948 | – | 0.901 | 1 | 0.215 | 0.244 | 0.206 | 0.132 | 0.174 | 0.345 | 0.638 | 0.823 | 0.789 | 0.597
BEN | – | 0.332 | – | 0.305 | 0.269 | 0.823 | 0.912 | 0.919 | 1.18 | – | 0.563 | – | 0.412 | 0.501 | – | 0.769 | – | 0.81 | 0.852
CAL-12T | 0.523 | 0.68 | 0.902 | 0.566 | 0.645 | 1.22 | 1.27 | 1.16 | 1.24 | 0.377 | 0.424 | 0.423 | 0.328 | 0.349 | 0.59 | 0.626 | 0.661 | 0.594 | 0.703
COR-L23 | 0.768 | 0.803 | 0.732 | 0.6 | 0.61 | 0.947 | 0.831 | 0.841 | 0.986 | 0.174 | 0.221 | 0.201 | 0.205 | 0.19 | – | – | – | – | –
COR-L 105 | 0.6 | 0.786 | 0.58 | 0.722 | 0.906 | 1.08 | 0.947 | 0.868 | 1.24 | 0.332 | 0.415 | 0.362 | 0.347 | 0.395 | – | – | – | – | –
Calu-6 | – | – | – | – | – | 0.942 | 1.07 | 1 | 1.2 | – | – | – | – | – | – | – | – | – | –
ChaGo-K-1 | 0.209 | 0.53 | 0.502 | 0.504 | 0.651 | – | – | – | – | 0.219 | 0.223 | 0.225 | 0.194 | 0.239 | 0.303 | 0.839 | 0.855 | 0.698 | 0.879
EBC-1 | – | – | – | – | – | 0.777 | 0.835 | 0.687 | 0.892 | – | – | – | – | – | – | – | – | – | –
EKVX | 0.649 | 0.79 | 0.693 | 0.652 | 0.729 | 0.814 | 0.801 | 0.73 | 0.855 | 0.475 | 0.406 | 0.407 | 0.337 | 0.457 | – | 0.749 | 0.588 | 0.676 | 0.72
EMC-BAC-2 | 0.359 | 0.376 | 0.301 | 0.295 | 0.329 | 0.766 | 0.671 | 0.723 | 0.852 | 0.286 | 0.284 | 0.23 | 0.243 | 0.267 | – | 1.13 | 0.967 | 0.728 | 0.782
EPLC-272H | 0.234 | 0.371 | 0.31 | 0.258 | 0.249 | 0.982 | 0.752 | 0.965 | 1.01 | 0.345 | 0.326 | 0.33 | 0.273 | 0.256 | – | 0.283 | 0.174 | 0.207 | 0.155
H3255 | 0.572 | 0.579 | 0.62 | 0.56 | 0.583 | 0.727 | 0.78 | 0.723 | 0.907 | 0.507 | 0.675 | 0.721 | 0.609 | 0.629 | 0.791 | 0.94 | 0.908 | 0.758 | 1.16
HARA | 0.262 | 0.618 | – | 0.327 | 0.864 | 0.789 | 0.832 | 0.836 | 0.921 | 0.101 | 0.116 | – | 0.115 | 0.113 | – | 0.392 | 0.46 | 0.368 | 0.312
HCC-15 | 0.547 | 0.695 | 0.67 | 0.53 | 0.622 | 0.844 | 0.777 | 0.848 | 0.956 | 0.602 | 0.506 | 0.355 | 0.398 | 0.386 | 1.17 | 1.11 | 1.09 | 1.16 | 1.09
